Source: patent US20230324392A1, “METHODS AND COMPOSITIONS FOR TARGETING CYTOSOLIC DSDNA SIGNALING IN CHROMOSOMALLY UNSTABLE CANCERS” (MEMORIAL SLOAN KETTERING CANCER CENTER, priority 2020, published 2023)

Legend:
murine STING isoform = target: T1, murine STING isoform (Mus musculus, UniProt Q3TBT3); assay: Immunoblots of phosphorylated p65, RelB and IRF3 in C-176 treated tumor cells; format: cell-based
T1 construct: endogenous in cells
T1 sequence (Q3TBT3 1-378): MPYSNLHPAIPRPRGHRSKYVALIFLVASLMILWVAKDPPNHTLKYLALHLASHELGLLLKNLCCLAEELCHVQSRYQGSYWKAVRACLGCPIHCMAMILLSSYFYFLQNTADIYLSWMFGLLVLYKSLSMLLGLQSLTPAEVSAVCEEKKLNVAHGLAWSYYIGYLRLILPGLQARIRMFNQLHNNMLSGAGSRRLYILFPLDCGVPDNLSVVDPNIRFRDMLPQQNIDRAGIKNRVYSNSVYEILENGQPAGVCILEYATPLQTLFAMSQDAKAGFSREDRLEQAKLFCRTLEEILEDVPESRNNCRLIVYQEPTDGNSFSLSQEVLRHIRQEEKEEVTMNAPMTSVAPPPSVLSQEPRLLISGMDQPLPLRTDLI
Method: Immunoblotting: Cells were pelleted and lysed using RIPA buffer. Protein concentration was determined using BCA protein assay and 20-30 μg total protein were loaded in each lane. Proteins were separated by gradient SDS-PAGE and transferred to PVDF or nitrocellulose membranes. See Table 2 for antibody information. Membranes were imaged using the LI-COR Odyssey software. Relative STING protein levels were quantified by measuring band intensities on immunoblots using Image J software, background was subtracted and normalized to loading control. […] Cells were washed with ice-cold PBS and harvested using radio-immunoprecipitation assay (RIPA) lysis buffer containing protease and phosphatase inhibitors (Roche, Basel, Switzerland). Cells were lysed with a probe sonicator for 20 s. Protein quantification was performed using Pierce™ Rapid Gold BCA Protein Assay Kit (Thermo Fisher Scientific, Waltham, MA). Proteins were reduced at 95° C. for 5 mins with NuPAGE™ LDS Sample Buffer (4×) containing NuPAGE™ Sample Reducing Agent (10×). Lysates (40 μg protein/well) were resolved on NuPAGE™ 4-12% Bis-Tris Protein Gels (Invitro-gen) and transferred to polyvinylidene difluoride (PVDF) membranes (Thermo Fisher Scientific, Waltham, MA) using a wet transfer system. […] Images were captured by ChemiDoc Imaging Systems (Bio-Rad, UK) and densitometries were determined by ImageJ.

[1] = tested on: B16F10, 4T1 or CT26 cells; assay: Cell proliferation assay; format: cell-based, mouse; settings: C176 at 1 μM; 12-48 hours
Method: Cell proliferation assay: Cell proliferation was determined by seeding of 5×10^3 B16F10, 4T1 or CT26 cells in 6 well plates in triplicate. Cells were treated with C176 at 1 μM (Probechem, China) or DMSO control. Thereafter cells were counted in triplicate at 12, 24, 36, and 48 hours using trypan blue staining and the EVE™ automated cell counter (NanoEnTek, South Korea).

[2] = tested on: B16F10, 4T1, and CT26 cells; assay: xCELLigence assay for cell invasion; format: cell-based, mouse; settings: C176 at 1 μM; all three metastatic cancer cell lines
Method: xCELLigence assayfor cell invasion: Assessment of the impact of STING inhibition on cell invasion was conducted using the xCELLigence system CIM plates (ACEA Biosciences, San Diego, CA). The upper chamber was coated with 1 mg/ml of growth factor complete Matrigel (#356234, Corning, UK) made up in serum free media (SFM) and incubated at 37° C. for 4 hours to allow polymerisation. A total of 4×10^4 cells in serum-free media were seeded into the upper chamber insert with C176 at 1 μM (Probechem, China) or DMSO control. The lower chamber was filled with complete media. The CIM plates were incubated at 1 hour at 37° C. and 5% C02 for cell attachment. Plates were then monitored using the xCELLigence system. Changes in impedance resulting from cell invasion to the underside of wells were recorded every 15 minutes and monitored for a total of 60 hours.

STING-KO B16F10 cells = assay: Tail vein inoculation of STING-KO B16F10 cells in C57BL/6 mice, survival; format: in vivo, mouse; settings: C57BL/6 mice inoculated with STING-KO B16F10 cells
Method: Animal metastasis studies: Animal experiments were performed in accordance with protocols approved by the MSKCC Institutional Animal Care and Use Committee. […] There was no need to randomize animals. Investigators were not blinded to group allocation. For tail vein injections, 5×10^4 4T1, 2.5×10^4 B16F10, or 10^5 CT26 cells were injected into the tail vein of 6-7-week old BALB/c (4T1 and CT26) or C57BL/6 (B16F10) mice. Metastasis was primarily assessed through overall survival. Overall survival endpoint was met when the mice died or met the criteria for euthanasia under the IACUC protocol. […] Surface lung metastases were assessed at endpoint by direct visual examination after euthanasia at which points lungs were perfused and fixed in 4% paraformaldehyde (4T1 and B16F10 experiments) or stained using India-ink (CT26 experiments). Furthermore, lung metastasis after injection of 4T1 cells was qualitatively assessed using routine hematoxylin and eosin (H&E) staining. […] Primary tumors were surgically excised on day 7 after implantation and metastatic dissemination was assessed by monitoring overall survival or on day 30 through quantification of surface lung metastases upon euthanasia. The length (L) and width (W) of the primary tumors were measured using calipers. Tumor size was calculated according to the following formula: L*W2/2. […]

[3] = Tolerability of prolonged daily C-176 treatment, survival and necropsy; format: in vivo, mouse
Description: In B16F10-bearing animals, nearly 30% of the treated group had no evidence of disease at 98 days (FIG. 4A). […] Thus, the therapeutic effect of the STING inhibitors on metastasis is primarily mediated through inhibition of cancer cell-intrinsic STING.

SMILES: O=C(Nc1ccc(I)cc1)c1ccc([N+](=O)[O-])o1 [C-176]
- phosphorylated pools of the NF-κB transcription factors p65 and RelB (murine STING isoform; baseline, B16F10, 4T1, CT26 cells): significant reductions
- IRF3 phosphorylation (murine STING isoform; upon transfection of 20 μg/ml cGAMP): suppressed
- cellular proliferation [1]: did not impact cellular proliferation
- invasion [2]: significant reductions
- survival advantage beyond STING KO (STING-KO B16F10 cells): did not provide an additional survival advantage
- end-of-treatment necropsy ([3]; compared to vehicle-treated animals): no distinct pathologic abnormalities
- tolerability / clinically evident toxicity ([3]; prolonged daily treatment, vs vehicle-treated animals): well tolerated and did not lead to any clinically evident toxicity
- blood counts and blood chemistries ([3]; summary of Tables 9 and 10): within normal limits
- baseline cortisol levels ([3]; vs vehicle): lower baseline cortisol levels
